# From patent publication US20200247812A1 (Integral Biosciences Private Limited, priority 2018, published 2020)
# Target: T1, ALK 5 (Homo sapiens, UniProt P36897)
# T1 sequence (P36897 34-503): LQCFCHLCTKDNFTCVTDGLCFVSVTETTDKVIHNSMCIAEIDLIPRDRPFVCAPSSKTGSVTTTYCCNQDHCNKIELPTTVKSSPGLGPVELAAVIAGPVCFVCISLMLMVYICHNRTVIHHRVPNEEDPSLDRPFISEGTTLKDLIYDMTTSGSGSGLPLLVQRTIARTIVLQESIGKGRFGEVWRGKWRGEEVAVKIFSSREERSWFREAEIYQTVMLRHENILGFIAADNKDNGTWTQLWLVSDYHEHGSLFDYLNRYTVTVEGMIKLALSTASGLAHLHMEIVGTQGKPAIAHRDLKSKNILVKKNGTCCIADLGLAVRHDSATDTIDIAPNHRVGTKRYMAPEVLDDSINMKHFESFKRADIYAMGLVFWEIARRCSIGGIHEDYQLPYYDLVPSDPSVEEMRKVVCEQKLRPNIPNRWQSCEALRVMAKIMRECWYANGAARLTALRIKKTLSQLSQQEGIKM
# Experiment: In vitro kinase assay (ALK5 IC50, LanthaScreen Terbium labeled TR-FRET)
# Type: biochemical
# Conditions: TGF-β kinase 6 nM, ATP 10 μM, read-out: Enzyme Activity ALK 5 IC50
# Method: Compounds of the invention were screened in an in vitro kinase assay against ALK 5, a members of the TGF-β family of Ser/Thr kinases. Standard kinase testing conditions and techniques were employed. IC50 values of compounds against TGF-ß kinase was determined by LanthaScreen™ Terbium Labeled TR-FRET assay. Kinase assays were performed in 1X kinase buffer (# PV6135, Invitrogen, Life Technologies Grand Island, N.Y.) where total reaction volume was 10 μL in low-volume 384-well plates (#4511, Corning). Serially diluted compounds (3-fold) were incubated with TGF-β kinase (6 nM) for 10 min, following which a mixture of ATP (10 μM) (# A1852, Sigma, St-Louis, Mo.) and fluorescent-PolyGT substrate (200 nM); Cat # PV3610, Invitrogen, Life Technologies Grand Island, N.Y.) was added and incubated in dark at room temperature for 1 h. After 1 h, 10 μL stop solution containing Terbium labeled antibody (4 nM; Cat # PV3529, Invitrogen, Life Technologies Grand Island, N.Y.) and EDTA (# E5134, Sigma, St-Louis, Mo.; 20 mM) in TR-FRET dilution buffer (Cat # PV3574, Invitrogen, Life Technologies Grand Island, N.Y.) was added. Readings were taken in a Synergy Neo Plate reader (BioTek, Winooski) at single excitation of 340 nm and Dual emission at 495 nm and 520 nm respectively.
# The % activity of test samples was calculated as (Sample-Min)×100/(Max −Min). [Max: DMSO control, complete reaction with enzyme with DMSO and Min: No enzyme with DMSO]. Percent inhibition (100-% activity) was fitted to the “four-parameter logistic model” in XLfit for determination of IC50 values.
row,IC50 [µM],Compound
1,2 to 5,"C[C@@H](CO)NC(=O)c1cnccc1Nc1cc(-c2cc(Cl)ccc2F)c(=O)n(C)c1N(C)C [Compound 1.17, (S)-4-((5-(5-chloro-2-fluorophenyl)-2-(dimethylamino)-1-methyl-6-oxo-1,6-dihydropyridin-3-yl)amino)-N-(1-hydroxypropan-2-yl)nicotinamide]"
2,2 to 5,"Cc1cc(-c2cc(Nc3ccnc4ccncc34)c(C(C)C)[nH]c2=O)ccc1F [Compound 1.89, 5-((1,6-naphthyridin-4-yl)amino)-3-(4-fluoro-3-methylphenyl)-6-isopropylpyridin-2(1H)-one]"
3,≤ 0.5,"CC(=O)Nc1cc(Nc2cc(-c3ccsc3)c(=O)[nH]c2C(C)C)ccn1 [Compound 1.79, N-(4-((2-isopropyl-6-oxo-5-(thiophen-3-yl)-1,6-dihydropyridin-3-yl)amino)pyridin-2-yl)acetamide]"
4,> 5,"CC(=O)Nc1cc(Nc2cc(-c3ccc(C(F)(F)F)nc3)c(=O)[nH]c2C(C)C)ccn1 [Compound 1.56, N-(4-((6-isopropyl-2-oxo-6′-(trifluoromethyl)-1,2-dihydro-[3,3′-bipyridin]-5-yl)amino)pyridin-2-yl)acetamide]"
5,> 5,"CC(=O)Nc1cc(Nc2cc(-c3ccccc3CO)c(=O)[nH]c2C(C)C)ccn1 [Compound 1.53, N-(4-((5-(2-(hydroxymethyl)phenyl)-2-isopropyl-6-oxo-1,6-dihydropyridin-3-yl)amino)pyridin-2-yl)acetamide]"
6,> 5,"CN(C)c1[nH]c(=O)c(-c2cc(Cl)ccc2F)cc1Nc1ccncc1 [Compound 1.14, 3-(5-chloro-2-fluorophenyl)-6-(dimethylamino)-5-(pyridin-4-ylamino)pyridin-2(1H)-one]"
7,> 5,"C[C@H](CO)NC(=O)c1cnccc1Nc1cc(-c2cc(Cl)ccc2F)c(=O)n2c1N(C)CCC2 [Compound 1.25, (R)-4-((7-(5-chloro-2-fluorophenyl)-1-methyl-6-oxo-1,3,4,6-tetrahydro-2H-pyrido[1,2-a]pyrimidin-9-yl)amino)-N-(1-hydroxypropan-2-yl)nicotinamide]"
8,> 5,"C[C@@H](CO)NC(=O)c1cnccc1Nc1cc(-c2cc(Cl)ccc2F)c(=O)n(C)c1 [Compound 1.8, (S)-4-((5-(5-chloro-2-fluorophenyl)-1-methyl-6-oxo-1,6-dihydropyridin-3-yl)amino)-N-(1-hydroxypropan-2-yl)nicotinamide]"
9,2 to 5,"C[C@H](O)CNC(=O)c1cnccc1Nc1cc(-c2cc(Cl)ccc2F)c(=O)n2c1N(C)CC2 [Compound 1.19, (S)-4-((6-(5-chloro-2-fluorophenyl)-1-methyl-5-oxo-1,2,3,5-tetrahydroimidazo[1,2-a]pyridin-8-yl)amino)-N-(2-hydroxypropyl)nicotinamide]"
10,> 5,"CC(C)c1[nH]c(=O)c(-c2cc(Cl)ccc2F)cc1Nc1ccnc(NC(=O)C(C)(C)C)c1 [Compound 1.49, N-(4-((5-(5-chloro-2-fluorophenyl)-2-isopropyl-6-oxo-1,6-dihydropyridin-3-yl)amino)pyridin-2-yl)pivalamide]"
11,> 5,"CC(C)c1[nH]c(=O)c(-c2cc(Cl)ccc2F)cc1Nc1ccnc(N)c1 [Compound 1.44, 5-((2-aminopyridin-4-yl)amino)-3-(5-chloro-2-fluorophenyl)-6-isopropylpyridin-2(1H)-one]"
12,> 5,"C[C@H](O)CNC(=O)c1cnccc1Nc1cc(-c2cc(Cl)ccc2F)c(=O)n2c1N(C)CCC2 [Compound 1.20, (S)-4-((7-(5-chloro-2-fluorophenyl)-1-methyl-6-oxo-1,3,4,6-tetrahydro-2H-pyrido[1,2-a]pyrimidin-9-yl)amino)-N-(2-hydroxypropyl)nicotinamide]"
13,0.5 to 2,"CC(=O)Nc1cc(Nc2cc(-c3cccc(C#N)c3)c(=O)[nH]c2C(C)C)ccn1 [Compound 1.54, N-(4-((5-(3-cyanophenyl)-2-isopropyl-6-oxo-1,6-dihydropyridin-3-yl)amino)pyridin-2-yl)acetamide]"
14,≤ 0.5,"COc1[nH]c(=O)c(-c2cc(Cl)ccc2F)cc1Nc1ccnc2[nH]ccc12 [Compound 1.76, 5-((1H-pyrrolo[2,3-b]pyridin-4-yl)amino)-3-(5-chloro-2-fluorophenyl)-6-methoxypyridin-2(1H)-one]"
15,2 to 5,"CN(C)c1[nH]c(=O)c(-c2cc(Cl)ccc2F)cc1Nc1ccnc2ccncc12 [Compound 1.37, 5-((1,6-naphthyridin-4-yl)amino)-3-(5-chloro-2-fluorophenyl)-6-(dimethylamino)pyridin-2(1H)-one]"
16,> 5,"CN(C)c1[nH]c(=O)c(-c2cc(Cl)ccc2F)cc1Nc1ccncc1C#N [Compound 1.34, 4-((5-(5-chloro-2-fluorophenyl)-2-(dimethylamino)-6-oxo-1,6-dihydropyridin-3-yl)amino)nicotinonitrile]"
17,2 to 5,"Cc1cccc(-c2cc(Nc3ccnc4[nH]ccc34)c(N(C)C)[nH]c2=O)n1 [Compound 1.13, 5′-((1H-pyrrolo[2,3-b]pyridin-4-yl)amino)-6′-(dimethylamino)-6-methyl-[2,3′-bipyridin]-2′(1′H)-one]"
18,> 5,"C[C@@H](CO)NC(=O)c1cnccc1Nc1c[nH]c(=O)c(-c2cc(Cl)ccc2F)c1 [Compound 1.2, (S)-4-((5-(5-chloro-2-fluorophenyl)-6-oxo-1,6-dihydropyridin-3-yl)amino)-N-(1-hydroxypropan-2-yl)nicotinamide]"
19,0.5 to 2,CC(C)c1[nH]c(=O)c(-c2cc(Cl)ccc2F)cc1Nc1ccncc1C(=O)N[C@@H](C)CO [Compound 1.6]
20,> 5,"CC(C)c1[nH]c(=O)c(-c2cc(Cl)ccc2F)cc1Nc1ccnc(C(C)(C)C#N)c1 [Compound 1.60, 2-(4-((5-(5-chloro-2-fluorophenyl)-2-isopropyl-6-oxo-1,6-dihydropyridin-3-yl)amino)pyridin-2-yl)-2-methylpropanenitrile]"
21,> 5,"CC(C)c1[nH]c(=O)c(-c2cc(Cl)ccc2F)cc1Nc1ccnc2[nH]ccc(=O)c12 [Compound 1.59, 5-((5-(5-chloro-2-fluorophenyl)-2-isopropyl-6-oxo-1,6-dihydropyridin-3-yl)amino)-1,8-naphthyridin-4(1H)-one]"
22,2 to 5,"CN(C)c1[nH]c(=O)c(-c2cc(Cl)ccc2F)cc1Nc1ccncc1C1=NCCN1 [Compound 1.35, 3-(5-chloro-2-fluorophenyl)-5-((3-(4,5-dihydro-1H-imidazol-2-yl)pyridin-4-yl)amino)-6-(dimethylamino)pyridin-2(1H)-one]"
23,> 5,"CC(C)c1[nH]c(=O)c(-c2cc(Cl)ccc2F)cc1Nc1ccnc2c1CCC(=O)N2 [Compound 1.62, 5-((5-(5-chloro-2-fluorophenyl)-2-isopropyl-6-oxo-1,6-dihydropyridin-3-yl)amino)-3,4-dihydro-1,8-naphthyridin-2(1H)-one]"
24,> 5,"CC(C)c1[nH]c(=O)c(-c2cc(Cl)ccc2F)cc1Nc1ccnc(NS(C)(=O)=O)c1 [Compound 1.63, N-(4-((5-(5-chloro-2-fluorophenyl)-2-isopropyl-6-oxo-1,6-dihydropyridin-3-yl)amino)pyridin-2-yl)methanesulfonamide]"
25,> 5,"CC(C)c1[nH]c(=O)c(-c2cc(Cl)ccc2F)cc1Nc1ccnc(NC(=O)CN2CCOCC2)c1 [Compound 1.65, N-(4-((5-(5-chloro-2-fluorophenyl)-2-isopropyl-6-oxo-1,6-dihydropyridin-3-yl)amino)pyridin-2-yl)-2-morpholinoacetamide]"
26,≤ 0.5,"CC(=O)Nc1cc(Nc2cc(-c3cccc(Cl)c3)c(=O)[nH]c2C(C)C)ccn1 [Compound 1.81, N-(4-((5-(3-chlorophenyl)-2-isopropyl-6-oxo-1,6-dihydropyridin-3-yl)amino)pyridin-2-yl)acetamide]"
27,0.5 to 2,"CNC(=O)c1cnccc1Nc1cc(-c2cc(Cl)ccc2F)c(=O)[nH]c1N(C)C [Compound 1.38, 4-((5-(5-chloro-2-fluorophenyl)-2-(dimethylamino)-6-oxo-1,6-dihydropyridin-3-yl)amino)-N-methylnicotinamide]"
28,≤ 0.5,"CC(C)c1[nH]c(=O)c(-c2cc(Cl)ccc2F)cc1Nc1ncnc2c1CC(=O)N2 [Compound 1.78, 4-((5-(5-chloro-2-fluorophenyl)-2-isopropyl-6-oxo-1,6-dihydropyridin-3-yl)amino)-5,7-dihydro-6H-pyrrolo[2,3-d]pyrimidin-6-one]"
